Ki data for two compounds are collected here from ChEMBL document CHEMBL5725746, “Spiro-thiazolones” (2018).

This assay concerns the target Vasopressin V1a receptor (Homo sapiens, UniProt P37288). Kind of assay: competition binding assay: The human V1a receptor was cloned by RT-PCR from total human liver RNA. The coding sequence was subcloned in an expression vector after sequencing to confirm the identity of the amplified sequence. […] Cell membranes were prepared from HEK293 cells transiently transfected with the expression vector and grown in 20 liter fermenters with the following protocol.50 g of cells are re-suspended in 30 ml freshly prepared ice cold Lysis buffer (50 mM HEPES, 1 mM EDTA, 10 mM MgCl2 adjusted to pH=7.4+complete cocktail of protease inhibitor (Roche Diagnostics)). Homogenized with Polytron for 1 min and sonicated on ice for 2×2 minutes at 80% intensity (Vibracell sonicator). The preparation is centrifuged 20 min at 500 g at 4° C., the pellet is discarded and the supernatant centrifuged 1 hour at 43,000 g at 4° C. (19,000 rpm). The pellet is re-suspended in 12.5 ml Lysis buffer+12.5 ml Sucrose 20% and homogenized using a Polytron for 1-2 min. The protein concentration is determined by the Bradford method and aliquots are stored at −80° C. until use. For binding studies 60 mg Yttrium silicate SPA beads (Amersham) are mixed with an aliquot of membrane in binding buffer (50 mM Tris, 120 mM NaCl, 5 mM KCl, 2 mM CaCl2, 10 mM MgCl2) for 15 minutes with mixing. […].

Chain of Vasopressin V1a receptor (P37288 whole entry): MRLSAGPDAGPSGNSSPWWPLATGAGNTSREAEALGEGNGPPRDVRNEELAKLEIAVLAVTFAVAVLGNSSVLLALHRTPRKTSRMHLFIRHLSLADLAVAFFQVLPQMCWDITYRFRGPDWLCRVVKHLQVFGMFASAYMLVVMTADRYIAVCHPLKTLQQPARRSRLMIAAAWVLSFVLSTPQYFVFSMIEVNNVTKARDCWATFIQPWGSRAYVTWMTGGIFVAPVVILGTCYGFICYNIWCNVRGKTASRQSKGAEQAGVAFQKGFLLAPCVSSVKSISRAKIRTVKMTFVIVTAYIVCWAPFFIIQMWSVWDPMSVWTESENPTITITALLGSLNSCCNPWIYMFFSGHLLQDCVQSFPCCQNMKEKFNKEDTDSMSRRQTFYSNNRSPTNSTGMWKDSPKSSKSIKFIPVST

The compound `C/C(=C1/SC(N2CCC3(CC2)OCc2ccccc23)=NC1=O)c1nccs1` gave an inhibition constant Ki of 1 nM. For the compound `C/C(=C1\SC(N2CCC3(CC2)OCc2ccccc23)=NC1=O)c1ccc(Cl)nc1`, the Ki worked out at 3.16 nM.
